Measured values reported in patent publication US20220143072A1, “Chitosan nitrate for use as a nitric oxide donor (NO donor)” (NO-ceuticals B.V., priority 2019, published 2022).

Assay: Fasting salivary nitrate and nitrite after oral nitrate (Quantofix test strips)
Parameters: species or system human
Details: in vivo
Experimental: Measuring the fasting value of salivary nitrate and nitrite does give a reflection of the plasma value of nitrate and nitrite. The patient took one capsule chitosan nitrate, containing 120 mg NO3− anion, at 11:00 pm. […] An equivalent amount of 120 mg NO3− was taken at 11:00 pm. […] Oligo chitosan is absorbed before reaching the colon and NO3− will then also be absorbed. Quantofix test strips nitrate and nitrite from Macherey-Nagel company, Germany, were used for measurement of NO3− and NO2−. These test strips allow semiquantitative measurement. Reading of the test strips was performed with a Quantofix Relax reader. Other tests were done based on the ingestion of the daily dose in the morning and by measuring the salivary nitrate and salivary nitrite 24 hours later. Two capsules of chitosan nitrate contained an equivalent amount of 240 mg NO3−. Ten measurements were done for both chitosan nitrate and KNO3 salt.

nitrite values in saliva relative to KNO3: three times higher
Substance: chitosan nitrate
